From patent US8716246B2, “Azuvirin peptides” (The Regents of the University of California, priority 2011, dated 2014)
Entries after “also recorded” stand apart in the source; their conditions may differ. Bridge positions count the residues as written; N and C are the ends. Square brackets hold non-standard residues; d marks the D form. Ends that are not written are not given here. Peptide text beside a SMILES is read from it. * marks the point of attachment. Oic = O=C(O)[C@@H]1C[C@@H]2CCCC[C@@H]2N1; Cha = N[C@@H](CC1CCCCC1)C(=O)O; Tle = CC(C)(C)[C@H](N)C(=O)O; Nicotinoyl = O=C(c1cccnc1)*; Acm = CC(=O)NC*

How the values were obtained:
rhEphB2/Fc = rhEphB2/Fc (Homo sapiens, UniProt P29323); assay: SPR binding to immobilized rhEphB2/Fc (Biacore 3000); set-up: Fc; purchased R&D Systems, Inc., Minneapolis, Minn; conditions: SPR; averaged from at least 4 independent experiments; read-out: KD ± SEM, rhEphB2/Fc
Description: (§1) Binding to selected ephrin receptors was measured by surface plasmon resonance on a Biacore3000 instrument. Commercially available ephrin receptors: EphA2, EphB2 and EphB4 (R&D Systems) were immobilized on a CM-5 chip by amine coupling and tested peptides were passed over a chip surface as analytes.
(§2) Binding studies. Binding studies were performed by surface plasmon resonance (SPR) on a BIAcore 3000 system (BiaCore AB, Piscataway, N.J.). BIAcore CM5 sensor chips were utilized in all experiments. Binding studies were performed in HBS-EP running buffer (pH=7.4) containing 10 mM HEPES, 150 mM NaCl, 3 mM EDTA, and 0.005% polysorbate 20. Commercially available ephrin receptors: EphA2, EphB2 and EphB4 (R&D Systems, Inc., Minneapolis, Minn.) were immobilized on a CM5 sensor chip using the amine coupling method. The chip was activated by mixing 400 mM N-ethyl-N-(3-dimethylaminopropyl)-carbodiimide hydrochloride and 100 mM N-hydroxysuccinimide. Residual reactive groups on the chip surface were blocked using 1.0 M ethanolamine/HCl (pH=8.5). The flow cell-1 chip, which served as a control, lacked immobilized protein but was treated with N-ethyl-N-(3-dimethylaminopropyl)-carbodiimide hydrochloride, N hydroxysuccinimide, and ethanolamine/HCl. Binding signals were corrected for nonspecific binding by subtracting the flow cell-1 signal (blank surface). To regenerate chip surfaces, bound ligands were removed with 10 mM HCl. Data were analyzed with BIAevaluation 4.1 software (Biacore, Piscataway, N.J.).

[1] = test system: Lewis lung carcinoma (LLC); assay: Artificial metastasis model: i.v. Lewis lung carcinoma plus local thoracic irradiation, lung tumor nodules counted; format: in vivo, C57BL/6 mice; conditions: for tumor colonies lower / radiation efficacy improved versus radiation alone: Example 1: 500 μg (~10 mg/kg) total i.p. in 4 daily doses 60 min before 4 Gy thoracic irradiation, equimolar controls, nodules day 14; for radiosensitizing effect in artificial metastasis model (in words): with radiation therapy (4 x 4 Gy), peptide or equimolar nicotinamide i.p. from day 4 after i.v. LLC
Description: (§3) The AzV-36-Nic conjugate was tested in vivo for its ability to radiosensitize Lewis lung carcinoma (LCC) in an artificial metastasis model. Briefly, C57BL/6 mice (8 weeks old) were intravenously injected with 5×10^5 cells of syngeneic LLC. Various treatments were initiated 4 days later, after cancer engraftment. In general, each animal received intraperitoneally a total of 500 μg (˜10 mg/kg) of peptide in 4 daily doses 60 mins before local thoracic irradiation (4 Gy). Animals were sacrificed on the 14th day of the experiment and lung tumor nodules were counted.
as §3, with “Animal experiments.” for “The AzV-36-Nic conjugate was tested in vivo for its ability to radiosensitize Lewis lung carcinoma (LCC) in an artificial metastasis model.”, “min” for “mins”
Animal experiments. C57BL/6 gnotobiotic mice (8 weeks old) were obtained from the UCLA AALAC accredited Department of Radiation Oncology Facility and intravenously injected with 5×10^5 cells of syngeneic LLC. Various treatments were initiated 4 days later, after cancer engraftment. In general, each animal received intraperitoneally a total of 500 μg (˜25 mg/kg) of peptide (or equimolar amount of nicotinamide) in 4 daily doses 60 min before local thoracic irradiation (0 or 4 Gy, total dose: 4.4=16 Gy) that was delivered using an Atomic Energy of Canada cesium gamma irradiator with a dose rate of approximately 0.6 Gy/min with the rest of the body shielded. Prior to irradiation animals were anesthetized by intraperitoneal injection of ketamine/xylazine mixture. Animals were sacrificed on the 14th day of the experiment and lung tumor nodules were counted. All experiments were approved by the UCLA Animal Care and Use Committee and conformed to local and national guidelines.

rhEphA2 = rhEphA2 (Homo sapiens, UniProt P29317); assay: SPR binding to immobilized rhEphA2 (Biacore 3000); set-up: purchased R&D Systems, Inc., Minneapolis, Minn; conditions: SPR; averaged from at least 4 independent experiments; read-out: KD ± SEM, rhEphA2
Description: as §1, §2

rhEphB4 = target: T1, rhEphB4 (Homo sapiens, UniProt P54760); assay: SPR binding to immobilized rhEphB4 (Biacore 3000); conditions: SPR; averaged from at least 4 independent experiments; read-out: KD ± SEM, rhEphB4
T1 construct: purchased R&D Systems, Inc., Minneapolis, Minn
T1 sequence (P54760 16-987): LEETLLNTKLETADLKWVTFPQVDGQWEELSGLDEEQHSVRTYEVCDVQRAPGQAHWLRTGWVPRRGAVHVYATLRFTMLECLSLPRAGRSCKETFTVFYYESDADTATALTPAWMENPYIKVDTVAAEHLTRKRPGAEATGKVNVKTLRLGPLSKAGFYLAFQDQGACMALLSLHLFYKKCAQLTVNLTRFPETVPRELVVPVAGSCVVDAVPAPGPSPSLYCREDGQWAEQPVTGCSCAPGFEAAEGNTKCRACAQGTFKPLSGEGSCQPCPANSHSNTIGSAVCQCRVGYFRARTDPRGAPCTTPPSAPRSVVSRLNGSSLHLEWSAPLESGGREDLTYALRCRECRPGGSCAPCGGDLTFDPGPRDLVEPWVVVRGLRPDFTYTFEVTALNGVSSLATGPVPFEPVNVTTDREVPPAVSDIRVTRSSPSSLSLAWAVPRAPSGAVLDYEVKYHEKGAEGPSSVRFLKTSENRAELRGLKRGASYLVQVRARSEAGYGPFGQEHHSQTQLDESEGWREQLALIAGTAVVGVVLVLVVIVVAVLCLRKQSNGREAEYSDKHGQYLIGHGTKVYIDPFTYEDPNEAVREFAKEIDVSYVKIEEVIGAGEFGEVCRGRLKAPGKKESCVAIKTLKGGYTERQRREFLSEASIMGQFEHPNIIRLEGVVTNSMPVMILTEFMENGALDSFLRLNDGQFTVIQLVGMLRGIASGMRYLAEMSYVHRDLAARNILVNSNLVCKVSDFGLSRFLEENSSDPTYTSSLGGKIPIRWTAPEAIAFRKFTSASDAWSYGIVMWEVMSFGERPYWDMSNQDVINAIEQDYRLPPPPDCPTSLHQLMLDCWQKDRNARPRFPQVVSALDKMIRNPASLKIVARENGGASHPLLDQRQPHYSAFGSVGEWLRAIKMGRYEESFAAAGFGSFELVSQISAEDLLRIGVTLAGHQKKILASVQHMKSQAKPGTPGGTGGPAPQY
Description: as §1, §2

C[C@@H](O)[C@@H]1NC(=O)[C@H](CCCNC(=N)N)NC(=O)[C@H](Cc2c[nH]cn2)NC(=O)[C@@H](CCCNC(=N)N)NC(=O)[C@@H]2C[C@@H]3CCCC[C@@H]3N2C(=O)[C@H](CC2CCCCC2)NC(=O)[C@H](C(C)(C)C)NC(=O)[C@@H](NC(=O)[C@H](CC2CCCCC2)NC(=O)[C@H](CC2CCCCC2)NC(=O)[C@@H](CCCCN)NC(=O)[C@@H](N)Cc2ccc(O)cc2)CSSC[C@@H](C(=O)N[C@H](CCCCN)C(N)=O)NC(=O)[C@H](CC2CCCCC2)NC1=O [AzV36, Yk-Cha-Cha-Cys-Tle-Cha-Oic-rHRT-Cha-Cys-k-CONH] (H-Y[dK][Cha][Cha]C[Tle][Cha][Oic][dR]HRT[Cha]C[dK]-NH2; disulfide 5-14; N-terminus assumed)
Kd (rhEphB2/Fc): 164 ± 11 nM
tumor colonies lower / radiation efficacy improved versus radiation alone [1]: 1.3 fold
Kd (rhEphA2): 126 ± 11 nM
Kd (rhEphB4): 106 ± 15 nM

CC(=O)NCSC[C@H](NC(=O)[C@H](CC1CCCCC1)NC(=O)[C@H](CC1CCCCC1)NC(=O)[C@@H](CCCCN)NC(=O)[C@@H](N)Cc1ccc(O)cc1)C(=O)N[C@H](C(=O)N[C@@H](CC1CCCCC1)C(=O)N1[C@H](C(=O)N[C@H](CCCNC(=N)N)C(=O)N[C@@H](Cc2c[nH]cn2)C(=O)N[C@@H](CCCNC(=N)N)C(=O)N[C@H](C(=O)N[C@@H](CC2CCCCC2)C(=O)N[C@@H](CSCNC(C)=O)C(=O)N[C@H](CCCCN)C(N)=O)[C@@H](C)O)C[C@@H]2CCCC[C@@H]21)C(C)(C)C [AzV36-L] (H-Y[dK][Cha][Cha]C(Acm)[Tle][Cha][Oic][dR]HRT[Cha]C(Acm)[dK]-NH2; N-terminus assumed)
radiosensitizing effect in artificial metastasis model (in words) [1]: no or minimal radiosensitizing effect; also recorded: only marginally improved radiation efficacy; also recorded: ineffective

NC(=O)c1cccnc1 [nicotinamide, reference compound]
radiosensitizing effect in artificial metastasis model (in words) [1]: no or minimal radiosensitizing effect; also recorded: only marginally improved radiation efficacy
radiosensitizing effect in artificial metastasis model (in words) ([1]; listed as Nic): ineffective

AzV-36-Nic: Example 1: AzV-36 conjugated with nicotinic acid via amide bond; linear, 15 residues; probably AzV36-NicL (Y[dK](Nicotinoyl)[Cha][Cha]C[Tle][Cha][Oic][dR]HRT[Cha]C[dK]-NH2; not fully specified (bridges); printed as YkNic-Cha-Cha-Cys-Tle-Cha-Oic-rHRT-Cha-Cys-k-CONH; cysteine pairing not given here)
tumor colonies lower / radiation efficacy improved versus radiation alone [1]: 3-10 fold
